Measured values as given in patent publication US8247594B2, “Insecticidal compounds” (Syngenta Crop Protection LLC, priority 2007, dated 2012).

Tests used:
Myzus persicae = Myzus persicae (green peach aphid) leaf disc spray test; type: in vivo; details: application rate 200 ppm, sprayed sunflower leaf discs, mixed ages, 6 DAT; mortality
Method: Myzus Persicae (Green Peach Aphid): Sunflower leaf discs were placed on agar in a 24-well microtiter plate and sprayed with test solutions at an application rate of 200 ppm. After drying, the leaf discs were infested with an aphid population of mixed ages. After an incubation period of 6 DAT, samples were checked for mortality.

Tetranychus urticae = Tetranychus urticae (two-spotted spider mite) leaf disc spray test; type: in vivo; details: application rate 200 ppm, sprayed bean leaf discs, mixed ages, 8 days; egg, larval and adult mortality
Excerpt: Tetranychus Urticae (Two-Spotted Spider Mite): Bean leaf discs on agar in 24-well microtiter plates were sprayed with test solutions at an application rate of 200 ppm. After drying, the leaf discs are infested with mite populations of mixed ages. 8 days later, discs are checked for egg mortality, larval mortality, and adult mortality.

Structure (SMILES): CCc1cc(C(F)(C(F)(F)F)C(F)(F)C(F)(F)F)cc(CC)c1NC(=O)c1ccc(C#N)c(NC(=O)OCC(Cl)(Cl)Cl)c1 (centres unmarked) [A12]
- control of Myzus persicae (Myzus persicae): at least 80%

Structure (SMILES): N#Cc1ccc(C(=O)Nc2c(Br)cc(C(F)(C(F)(F)F)C(F)(F)F)cc2Br)cc1NC(=O)OCC(Cl)(Cl)Cl [A11]
- control of Tetranychus urticae (Tetranychus urticae): at least 80%
